Paper PMC7024169, “Synthesis and Antimalarial Activity of 1,4-Disubstituted Piperidine Derivatives” (Molecules, 2020)

Key:
[1] = tested on: Plasmodium falciparum W2 Strain; assay: microbe, parasite or virus in culture; format: cell-based
[2] = tested on: HUVEC cells; details: human
[3] = tested on: Plasmodium falciparum 3D7 Strain; assay: Antiplasmodial SYBR Green I assay, chloroquine-sensitive 3D7 strain; format: cell-based

| Compound | Selectivity Index (W2) =CC50/IC50 ([1]; CC50 HUVEC / IC50 W2) | CC50 ± SD, HUVEC Cells [2] | Selectivity Index (3D7) =CC50/IC50 ([3]; CC50 HUVEC / IC50 3D7) | IC50 ([1]; Plasmodium falciparum, W2, 48 h, read-out: IC50 ± SD, Plasmodium falciparum W2 Strain) | IC50 ([3]; Plasmodium falciparum, chloroquine-sensitive 3D7, 48 h incubation, SYBR Green I, read-out: IC50 ± SD, Plasmodium falciparum 3D7 Strain) |
| --- | --- | --- | --- | --- | --- |
| O=C(COc1ccccc1)N1CCC(N(C(=O)COc2ccccc2)c2ccccc2)CC1 [Compound 10] | >5.3 | >100 nM | >8.9 | – | – |
| CCN(CC)CCCC(C)Nc1ccnc2cc(Cl)ccc12 (centres unmarked) [CQ, chloroquine, reference compound] | – | – | – | 134 ± 32.3 nM | 22.4 ± 3.24 nM |
